Test [1] deals with T1, SARS-CoV-2 PLpro (nsp3 1564–1878) (Severe acute respiratory syndrome coronavirus 2, UniProt P0DTD1). In words: biochemical. Conditions: low concentration screen, read-out: % of control remaining. On the set-up: FRET-quenched peptide (Pro3) cleavage by PLpro, 10 min pre-incubation, slope over 20 min, normalised to no-compound control.
The target of test [2] is T1, SARS-CoV-2 PLpro (nsp3 1564–1878). Description: biochemical. On the set-up: FRET-quenched peptide (Pro3) cleavage by PLpro, 10 min pre-incubation, slope over 20 min, normalised to no-compound control. As to conditions: high concentration screen, read-out: % of control remaining.

Where a name gives a salt, the structure may show the parent alone. Read-outs that look alike come from different tables or passages of the source.

Turning to `C[C@H](O)[C@H](O)c1cnc2nc(N)[nH]c(=O)c2n1` [6-Biopterin], the remaining activity at 1.25 µM in test [1] (Well no.=6447) came to 99.6%. In addition, the remaining activity at 3.75 µM in test [2] (Well no.=6447) is 95.8%.

Take `COc1cc2c(CCNC(C)=O)c[nH]c2cc1Cl` [6-Chloromelatonin]: the remaining activity at 1.25 µM in test [1] (Well no.=89) is 98.5%. The remaining activity at 3.75 µM in test [2] (Well no.=89) turned out to be 101%.

With `NCC(O)c1cc(O)c(O)cc1F` (stereo not drawn) [6-Fluoronorepinephrine hydrochloride], the remaining activity at 1.25 µM in test [1] (Well no.=227) worked out at 97.7%. In test [2] (Well no.=227), the remaining activity at 3.75 µM stood at 97%.

For `O=Cc1c2[nH]c3ccccc3c2cc2[nH]c3ccccc3c12` [6-Formylindolo [3,2-B] carbazole], the remaining activity at 1.25 µM in test [1] (Well no.=4507) is 90.7%. The remaining activity at 3.75 µM in test [2] (Well no.=4507) stood at 97.6%.

For the compound `O=c1cc(-c2ccccc2)oc2ccc(O)cc12` [6-Hydroxyflavone (6-HF)], the remaining activity at 1.25 µM in test [1] (Well no.=8104) was determined as 98.9%. Further, in test [2] (Well no.=8104), the remaining activity at 3.75 µM came out at 98.5%.

In the case of `COc1cc2c(CCNC(C)=O)c[nH]c2cc1O` [6-Hydroxymelatonin], the remaining activity at 1.25 µM in test [1] (Well no.=654) was determined as 95.9%. In test [2] (Well no.=654), the remaining activity at 3.75 µM came to 96.7%.

With `CN1[C@@H]2CC(=O)C[C@H]1[C@H](O)C2` [6-Hydroxytropinone], the remaining activity at 1.25 µM in test [1] (Well no.=3639) was 99.8%. For the same compound, the remaining activity at 3.75 µM in test [2] (Well no.=3639) was 104%.

As for `CCCCCCCCC(=O)NCc1cc(OC)c(O)cc1I` [6-Iodonordihydrocapsaicin], in test [1] (Well no.=5963), the remaining activity at 1.25 µM worked out at 95.9%. Further, the remaining activity at 3.75 µM in test [2] (Well no.=5963) was determined as 99%.

With `CC(C)CCC[C@@H](C)[C@H]1CC[C@H]2[C@@H]3CC(=O)[C@H]4C[C@@H](O)CC[C@]4(C)[C@H]3CC[C@]12C` [6-Ketocholestanol], the remaining activity at 1.25 µM in test [1] (Well no.=6021) was found to be 94.9%. In test [2] (Well no.=6021), the remaining activity at 3.75 µM came out at 86.6%.

On to `Cc1cccc(C#Cc2ccccc2)n1` [6-Methyl-2-(phenylethynyl)pyridine hydrochloride], for which the remaining activity at 1.25 µM in test [1] (Well no.=834) worked out at 98.2%. Further, the remaining activity at 3.75 µM in test [2] (Well no.=834) was determined as 95%.

For `O=Nc1ccc2oc(=O)ccc2c1` [6-Nitroso-1,2-benzopyrone], in test [1] (Well no.=1099), the remaining activity at 1.25 µM turned out to be 95.7%. Further, the remaining activity at 3.75 µM in test [2] (Well no.=1099) amounted to 104%.

Take `OC[C@H]1O[C@@H](n2cnc3c(=S)nc[nH]c32)[C@H](O)[C@@H]1O` [6-_Thioinosine]: the remaining activity at 1.25 µM in test [1] (Well no.=7724) was 99.8%. Moreover, the remaining activity at 3.75 µM in test [2] (Well no.=7724) was 96.5%.

As to `Cc1ccc2c(c1)C1(CCN(CCc3nc(-c4ccccc4)oc3C)CC1)OC(=O)N2` [6-methyl-1'-(2-(5-methyl-2-phenyloxazol-4-yl)ethyl)spiro[benzo[d][1,3]oxazine-4,4'-piperidin]-2(1H)-one], in test [1] (Well no.=5915), the remaining activity at 1.25 µM was 93.5%. Moreover, the remaining activity at 3.75 µM in test [2] (Well no.=5915) came to 93.6%.

On to `Nc1nc2ccccc2c2ccccc12` [6-phenanthridinamine], for which the remaining activity at 1.25 µM in test [1] (Well no.=5389) was 106%. Also, the remaining activity at 3.75 µM in test [2] (Well no.=5389) came to 102%.

`CN(C)CCSSCCNC(=O)C1CCN(C(=O)CSc2ccc(Cl)cc2)CC1` [6H05 (trifluoroacetate)]: in test [1] (Well no.=6658), the remaining activity at 1.25 µM is 103%. For the same compound, the remaining activity at 3.75 µM in test [2] (Well no.=6658) was 106%.

On to `CCCCCCCCCCC/C=C/CCCCCC(=O)O` [7(E)-Nonadecenoic acid], for which the remaining activity at 1.25 µM in test [1] (Well no.=4366) stood at 105%. For the same compound, the remaining activity at 3.75 µM in test [2] (Well no.=4366) was 97.4%.

On to `CCCCCCCCCCC/C=C\CCCCCC(=O)O` [7(Z)-Nonadecenoic acid], for which the remaining activity at 1.25 µM in test [1] (Well no.=4364) worked out at 107%. Further, the remaining activity at 3.75 µM in test [2] (Well no.=4364) is 100%.

On to `CCCCCCCCCCC/C=C\C(C)(C)/C=C\CCCC(=O)O` [7,7-Dimethyleicosadienoic acid], for which the remaining activity at 1.25 µM was 101% in test [1] (Well no.=4313) and 100% in test [1] (Well no.=4412). Further, the remaining activity at 3.75 µM in test [2] (Well no.=4313) is 99.2%; in test [2] (Well no.=4412), 101%.

For `C[C@H](O)[C@H](O)C1=Nc2c(nc(N)[nH]c2=O)NC1` [7,8-Dihydro-L-biopterin], the remaining activity at 1.25 µM in test [1] (Well no.=7401) was 110%. Further, the remaining activity at 3.75 µM in test [2] (Well no.=7401) was determined as 102%.

As for `O=c1ccc2ccc(O)c(O)c2o1` [7,8-dihydroxy-2H-chromen-2-one], the remaining activity at 1.25 µM in test [1] (Well no.=5782) came to 105%. In test [2] (Well no.=5782), the remaining activity at 3.75 µM came out at 108%.

Source of the values: publication PMC8286840, “Identifying SARS-CoV-2 antiviral compounds by screening for small molecule inhibitors of Nsp3 papain-like protease” (Biochemical Journal, 2021).
